Activity data for two molecules are collected here from ChEMBL document CHEMBL1151978, “Epiquinamide: a poison that wasn't from a frog that was” (J Nat Prod, 2009).

The target of assay [1] is T1, Neuronal acetylcholine receptor; alpha4/beta2 (Rattus norvegicus) (UniProt P09483+P12390). Briefly: Displacement of [3H]epibatidine from alpha4beta2 nicotinic acetylcholine receptor in rat cerebral cortical membrane up to 100 uM. The assay is classed as cell membranes. For orientation: In a radioligand displacement assay an active substance lowers the binding of a labelled ligand.

The target of assay [2] is T2, Neuronal acetylcholine receptor; alpha3/beta4 (Rattus norvegicus) (UniProt P04757+P12392). Put plainly: Inhibition of rat alpha3beta4 nicotinic acetylcholine receptor activation expressed in HEK293 cells assessed as intracellular calcium level up to 100 uM by fluorescence assay. The assay is classed as cell-based.
Assay [3] addresses T1, Neuronal acetylcholine receptor; alpha4/beta2 (Rattus norvegicus). Put plainly: Displacement of [3H]epibatidine from alpha4beta2 nicotinic acetylcholine receptor in rat cerebral cortical membrane at 100 uM. The assay is classed as cell membranes.
The target of assay [4] is T2, Neuronal acetylcholine receptor; alpha3/beta4 (Rattus norvegicus). Briefly: Inhibition of rat alpha3beta4 nicotinic acetylcholine receptor activation expressed in HEK293 cells assessed as intracellular calcium level at 500 uM by fluorescence assay. It is filed as cell-based. In general terms: A change in cytosolic calcium serves as a functional read-out for many receptors and channels.

The source made the active and inactive calls. The rule behind the calls is not given here.

Turning to `O=C(O)[C@@H]1CCCN2CCCC[C@H]12`, the result in assay [1] and in assay [2] was inactive.
On to `O=[N+]([O-])[C@H]1CCCN2CCCC[C@H]12`, for which the outcome in assay [3] and in assay [4] was inactive.
